In experiment [1] the target is T1, Human PKMYT1 (Homo sapiens, UniProt Q99640).
T1 construct: Human PKMYT1 75-362 was cloned as a TEV cleavable 6xHis fusion; 6xHis (TEV cleavable) (cleaved yes); made in house; host or cells: bacterial cells
T1 sequence (Q99640 75-362): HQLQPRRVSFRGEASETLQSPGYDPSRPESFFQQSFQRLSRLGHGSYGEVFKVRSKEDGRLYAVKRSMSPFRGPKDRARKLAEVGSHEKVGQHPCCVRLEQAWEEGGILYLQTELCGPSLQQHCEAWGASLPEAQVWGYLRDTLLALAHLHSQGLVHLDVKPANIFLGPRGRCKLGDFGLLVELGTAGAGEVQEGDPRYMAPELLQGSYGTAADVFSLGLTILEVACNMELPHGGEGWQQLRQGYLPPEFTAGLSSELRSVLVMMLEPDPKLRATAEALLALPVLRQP
As to the kind of experiment: PKMYT1 biochemical ADP-Glo enzymatic assay. The settings on record: ADP-Glo. The gist of the method: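 IC50 derived from luminescence (ADP-Glo Max) after PKMYT1 kinase domain, 15 nM, turned over 500 µM ATP for 60 min at 26 °C. Buffer contained 10 mM MgCl2, 1 mM EGTA and 0.01% Brij-35 at pH 7.5.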

Experiment [2] addresses T2, WEE1 (Homo sapiens, UniProt P30291).
T2 construct: purchased Thermo Fisher PR7373A
As to the kind of experiment: Selectivity versus WEE1 assay (ADP-Glo enzymatic assay). It counts as biochemical. The conditions noted are these: for IC50: ADP-Glo; for PKMYT1 vs. WEE1 selectivity: fold difference in selectivity for PKMYT1 over WEE1. The gist of the method: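 Inhibition is measured as reduced ADP production, detected by luminescence with ADP-Glo, after enzyme (15 nM) and 30 µM ATP react for 60 min at 26° C in 1% DMSO-containing HEPES buffer, pH 7.5. Data are accepted only if replicate IC50s fall within 3-fold and r2 exceeds 0.9.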

The mark [3] stands for this setting: PKMYT1 kinase domain 15 nM, banded values.
Where [4] appears, read: 15 nM PKMYT1 kinase domain, 500 µM ATP, 60 minutes at 26° C., banded.
Setting [5] is: 15 nM WEE1, 60 minutes at 26° C., banded.
Setting [6] is: banded, ">N" = at least in this band but could be higher.

Structures can show the parent of a compound that is named as a salt. A value given as a limit tells only on which side of the number the result lay.

T2 sequence (P30291 whole entry): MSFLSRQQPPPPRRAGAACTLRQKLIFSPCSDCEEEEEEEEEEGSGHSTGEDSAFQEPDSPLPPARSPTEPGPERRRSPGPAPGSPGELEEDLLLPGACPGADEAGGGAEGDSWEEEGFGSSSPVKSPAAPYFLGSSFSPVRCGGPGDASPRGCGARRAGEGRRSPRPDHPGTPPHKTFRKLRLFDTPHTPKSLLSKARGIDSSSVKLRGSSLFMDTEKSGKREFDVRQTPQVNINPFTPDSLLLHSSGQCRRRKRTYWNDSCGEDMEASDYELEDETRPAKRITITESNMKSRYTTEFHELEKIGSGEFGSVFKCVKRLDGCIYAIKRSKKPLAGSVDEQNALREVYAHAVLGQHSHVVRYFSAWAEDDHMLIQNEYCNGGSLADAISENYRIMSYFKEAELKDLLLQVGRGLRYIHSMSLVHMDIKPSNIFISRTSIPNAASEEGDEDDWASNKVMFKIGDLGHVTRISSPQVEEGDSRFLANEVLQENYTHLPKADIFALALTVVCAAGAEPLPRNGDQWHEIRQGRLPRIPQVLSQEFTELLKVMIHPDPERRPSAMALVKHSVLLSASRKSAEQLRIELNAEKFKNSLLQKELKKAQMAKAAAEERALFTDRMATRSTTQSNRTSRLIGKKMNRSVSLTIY

On to `Cc1ccc(O)c(C)c1NC(=O)c1cnc(Nc2nccc3ncccc23)s1` [BAA-603, 2-((1,6-naphthyridin-5-yl)amino)-N-(3-hydroxy-2,6-dimethylphenyl)thiazole-5-carboxamide], for which the half-maximal inhibitory concentration (IC50) was 50 to 1000 nM in experiment [1] (setting [3]) and above 11000 nM in experiment [2] (WEE1 15 nM, banded values). Besides, the “PKMYT1 vs. WEE1 selectivity” value in experiment [2] (banded) is “X (100-<1000 fold)”.

As for `Cc1ccc(O)c(C)c1NC(=O)c1cnc(Nc2ncco2)s1` [BAA-027, N-(3-hydroxy-2,6-dimethyl-phenyl)-2-(oxazol-2-ylamino)thiazole-5-carboxamide], the IC50 in experiment [1] (setting [4]) is 50 to 1000 nM; in experiment [2] (setting [5]), above 11000 nM. Besides, in experiment [2] (setting [6]), the “PKMYT1 vs. WEE1 selectivity” value is “X (100-<1000 fold)”.

Regarding `Cc1ccc(O)c(C)c1NC(=O)c1cnc(Nc2ccn([C@H]3CCCNC3)n2)s1` [BAA-054, N-(3-hydroxy-2,6-dimethyl-phenyl)-2-[1-[(3S)-3-piperidyl]pyrazol-3-yllamino]thiazole-5-carboxamide (hydrochloride)], the half-maximal inhibitory concentration (IC50) was 1000 to 11000 nM in experiment [1] (setting [4]) and above 11000 nM in experiment [2] (setting [5]). In addition, in experiment [2] (setting [6]), the “PKMYT1 vs. WEE1 selectivity” value is given as “W (10-<100 fold)”.

As to `Cc1ccc(O)c(C)c1NC(=O)c1nnc(Nc2ccn(C)n2)s1` [BAA-463, N-(3-Hydroxy-2,6-dimethylphenyl)-5-((1-methyl-1H-pyrazol-3-yl)amino)-1,3,4-thiadiazole-2-carboxamide], the half-maximal inhibitory concentration (IC50) in experiment [1] (setting [3]) is 50 to 1000 nM; in experiment [2] (WEE1 15 nM, banded values), above 11000 nM. Moreover, the “PKMYT1 vs. WEE1 selectivity” value in experiment [2] (banded) was “X (100-<1000 fold)”.

Regarding `Cc1ccc(O)c(C)c1NC(=O)c1cnc(Nc2ccn(CC(=O)N3CCN(CC(F)(F)F)CC3)n2)s1` [BAA-184], the results for the IC50 in experiment [1] (setting [4]) and in experiment [2] (setting [5]) were 50 to 1000 nM and above 11000 nM, respectively. Also, in experiment [2] (setting [6]), the “PKMYT1 vs. WEE1 selectivity” value is “>X (100-<1000 fold)”.

Turning to `Cc1ccc(O)c(C)c1NC(=O)c1cnc(Nc2nccs2)s1` [BAA-257, N-(3-hydroxy-2,6-dimethylphenyl)-2-(thiazol-2-ylamino)thiazole-5-carboxamide], the IC50 is below 50 nM in experiment [1] (setting [4]) and above 11000 nM in experiment [2] (setting [5]). Also, in experiment [2] (setting [6]), the “PKMYT1 vs. WEE1 selectivity” value is reported as “Y (1000-5000 fold)”.

Regarding `Cc1ccc(O)c(C)c1NC(=O)c1cnc(Nc2cc(C(=O)OC(C)(C)C)n(C)n2)s1` [BAA-253, tert-butyl 3-((5-((3-hydroxy-2,6-dimethylphenyl)carbamoyl)thiazol-2-yl)amino)-1-methyl-1H-pyrazole-5-carboxylate], the IC50 is 50 to 1000 nM in experiment [1] (setting [4]) and above 11000 nM in experiment [2] (setting [5]). Further, the “PKMYT1 vs. WEE1 selectivity” value in experiment [2] (setting [6]) was “X (100-<1000 fold)”.

With `Cc1cn(C(C)C(=O)N2CCN(C)CC2)nc1Nc1ncc(C(=O)Nc2c(C)ccc(O)c2C)s1` (stereo not drawn) [BAA-500, N-(3-hydroxy-2,6-dimethylphenyl)-2-((4-methyl-1-(1-(4-methylpiperazin-1-yl)-1-oxopropan-2-yl)-1H-pyrazol-3-yl)amino)thiazole-5-carboxamide], the IC50 in experiment [1] (setting [3]) was below 50 nM; in experiment [2] (WEE1 15 nM, banded values), above 11000 nM. For the same compound, the “PKMYT1 vs. WEE1 selectivity” value in experiment [2] (banded) is on record as “X (100-<1000 fold)”.

Consider `Cc1ccc(O)c(C)c1NC(=O)c1cnc(Nc2cc(C(C)(C)C)nn2-c2ccccc2)s1` [BAA-359, 2-((3-(tert-butyl)-1-phenyl-1H-pyrazol-5-yl)amino)-N-(3-hydroxy-2,6-dimethylphenyl)thiazole-5-carboxamide], for which the IC50 is 1000 to 11000 nM in experiment [1] (setting [4]) and above 11000 nM in experiment [2] (setting [5]). In addition, the “PKMYT1 vs. WEE1 selectivity” value in experiment [2] (setting [6]) is given as “W (10-<100 fold)”.

For `Cc1ccc(O)c(C)c1NC(=O)c1cnc(Nc2ccn([C@@H]3CCN(C)C3)n2)s1` [BAA-116, N-(3-Hydroxy-2,6-dimethyl-phenyl)-2-[[1-[(3R)-1-methylpyrrolidin-3-yl]pyrazol-3-yl]amino]thiazole-5-carboxamide], the IC50 is 50 to 1000 nM in experiment [1] (setting [4]) and 1000 to 11000 nM in experiment [2] (setting [5]). Further, in experiment [2] (setting [6]), the “PKMYT1 vs. WEE1 selectivity” value is “W (10-<100 fold)”.

Turning to `Cc1ccc(O)c(C)c1NC(=O)c1cnc(Nc2n[nH]cc2Br)s1` [BAA-579, 2-((4-Bromo-1H-pyrazol-3-yl)amino)-N-(3-hydroxy-2,6-dimethylphenyl)thiazole-5-carboxamide], the IC50 is below 50 nM in experiment [1] (setting [3]) and 1000 to 11000 nM in experiment [2] (WEE1 15 nM, banded values). For the same compound, in experiment [2] (banded), the “PKMYT1 vs. WEE1 selectivity” value was “X (100-<1000 fold)”.

Regarding `Cc1ccc(O)c(C)c1NC(=O)c1cnc(Nc2cccc(C3=NCCO3)c2)s1` [BAA-461, 2-((3-(4,5-dihydrooxazol-2-yl)phenyl)amino)-N-(3-hydroxy-2,6-dimethylphenyl)thiazole-5-carboxamide], the IC50 in experiment [1] (setting [3]) is below 50 nM; in experiment [2] (WEE1 15 nM, banded values), 1000 to 11000 nM. Besides, the “PKMYT1 vs. WEE1 selectivity” value in experiment [2] (banded) was “X (100-<1000 fold)”.

With `Cc1ccc(O)c(C)c1NC(=O)c1cnc(Nc2ccn(CC(=O)NCCN3CCN(C(=O)OC(C)(C)C)CC3)n2)s1` [BAA-158], the figures for the IC50 in experiment [1] (setting [4]) and in experiment [2] (setting [5]) were 50 to 1000 nM and above 11000 nM, respectively. Moreover, the “PKMYT1 vs. WEE1 selectivity” value in experiment [2] (setting [6]) was “X (100-<1000 fold)”.

On to `COc1ccc(CC(=O)N2CCC(CNc3ncc(C(=O)Nc4c(C)ccc(O)c4C)s3)CC2)nc1` [BAA-100, N-(3-Hydroxy-2,6-dimethyl-phenyl)-2-[[1-[2-(5-methoxy-2-pyridyl)acetyl]-4-piperidyl]methylamino]thiazole-5-carboxamide], for which the IC50 is 50 to 1000 nM in experiment [1] (setting [4]) and above 11000 nM in experiment [2] (setting [5]). For the same compound, the “PKMYT1 vs. WEE1 selectivity” value in experiment [2] (setting [6]) was “>X (100-<1000 fold)”.

Turning to `Cc1ccc(O)c(C)c1NC(=O)c1cnc(NCC2CCN(C(=O)CC(C)(C)O)CC2)s1` [BAA-215, N-(3-hydroxy-2,6-dimethyl-phenyl)-2-[[1-(3-hydroxy-3-methyl-butanoyl)-4-piperidyl]methylamino]thiazole-5-carboxamide], the IC50 in experiment [1] (setting [4]) is 50 to 1000 nM; in experiment [2] (setting [5]), above 11000 nM. Besides, the “PKMYT1 vs. WEE1 selectivity” value in experiment [2] (setting [6]) is reported as “>X (100-<1000 fold)”.

With `CCCCn1ccc(Nc2ncc(C(=O)Nc3c(C)ccc(O)c3C)s2)n1` [BAA-012, 2-[(1-butylpyrazol-3-yl)amino]-N-(3-hydroxy-2,6-dimethyl-phenyl)thiazole-5-carboxamide], the IC50 was in the range of 50 to 1000 nM in experiment [1] (setting [4]) and 1000 to 11000 nM in experiment [2] (setting [5]). Moreover, the “PKMYT1 vs. WEE1 selectivity” value in experiment [2] (setting [6]) is “W (10-<100 fold)”.

In the case of `CCc1c(O)ccc(C)c1NC(=O)c1cnc(Nc2ccn(C)n2)s1` [BAA-469, N-(2-Ethyl-3-hydroxy-6-methylphenyl)-2-((1-methyl-1H-pyrazol-3-yl)amino)thiazole-5-carboxamide], the IC50 was 50 to 1000 nM in experiment [1] (setting [3]) and above 11000 nM in experiment [2] (WEE1 15 nM, banded values). Besides, the “PKMYT1 vs. WEE1 selectivity” value in experiment [2] (banded) is reported as “X (100-<1000 fold)”.

In the case of `Cc1ccc(O)c(C)c1NC(=O)c1cnc(Nc2ccn(CC(=O)NC3CCN(C)CC3)n2)s1` [BAA-151], the IC50 was 50 to 1000 nM in experiment [1] (setting [4]) and above 11000 nM in experiment [2] (setting [5]). In addition, the “PKMYT1 vs. WEE1 selectivity” value in experiment [2] (setting [6]) is on record as “X (100-<1000 fold)”.

As for `Cc1ccc(O)c(C)c1NC(=O)c1cnc(Nc2ccn([C@@H]3CCN(C(=O)CC4CCNCC4)C3)n2)s1` [BAA-107, N-(3-Hydroxy-2,6-dimethyl-phenyl)-2-[[1-[(3R)-1-[2-(4-piperidyl)acetyl]pyrrolidin-3-yl]pyrazol-3-yl]amino]thiazole-5-carboxamide], the results for the IC50 in experiment [1] (setting [4]) and in experiment [2] (setting [5]) were 50 to 1000 nM and above 11000 nM, respectively. Moreover, in experiment [2] (setting [6]), the “PKMYT1 vs. WEE1 selectivity” value is on record as “>X (100-<1000 fold)”.

`Cc1ccc(O)c(C)c1NC(=O)c1cnc(Nc2ccnn2C)s1` [BAA-010, N-(3-hydroxy-2,6-dimethyl-phenyl)-2-[(2-methylpyrazol-3-yl)amino]thiazole-5-carboxamide]: the IC50 in experiment [1] (setting [4]) was 50 to 1000 nM; in experiment [2] (setting [5]), above 11000 nM. The “PKMYT1 vs. WEE1 selectivity” value in experiment [2] (setting [6]) is “Y (1000-5000 fold)”.

As for `Cc1ccc(O)c(C)c1NC(=O)c1cnc(Nc2ccn(CC(N)=O)n2)s1` [BAA-133, 2-[[1-(2-amino-2-oxo-ethyl)pyrazol-3-yl]amino]-N-(3-hydroxy-2,6-dimethyl-phenyl) thiazole-5-carboxamide], the IC50 in experiment [1] (setting [4]) is below 50 nM; in experiment [2] (setting [5]) it was 1000 to 11000 nM. Moreover, the “PKMYT1 vs. WEE1 selectivity” value in experiment [2] (setting [6]) is on record as “X (100-<1000 fold)”.

For `Cc1ccc(O)c(C)c1NC(=O)c1cnc(Nc2nc(C)c(C)s2)s1` [BAA-266, 2-((4,5-dimethylthiazol-2-yl)amino)-N-(3-hydroxy-2,6-dimethylphenyl)thiazole-5-carboxamide], the IC50 in experiment [1] (setting [4]) is 50 to 1000 nM; in experiment [2] (setting [5]) it was above 11000 nM. The “PKMYT1 vs. WEE1 selectivity” value in experiment [2] (setting [6]) was “X (100-<1000 fold)”.

With `Cc1ccc(O)c(C)c1NC(=O)c1cnc(Nc2nc(Cl)ccc2C(F)(F)F)s1` [BAA-405, 2-((6-chloro-3-(trifluoromethyl)pyridin-2-yl)amino)-N-(3-hydroxy-2,6-dimethylphenyl)thiazole-5-carboxamide], the IC50 in experiment [1] (setting [3]) is 50 to 1000 nM; in experiment [2] (WEE1 15 nM, banded values), above 11000 nM. In experiment [2] (banded), the “PKMYT1 vs. WEE1 selectivity” value is reported as “X (100-<1000 fold)”.

Take `Cc1ccc(O)c(C)c1NC(=O)c1cnc(NCc2cc3ccccc3[nH]2)s1` [BAA-357, 2-(((1H-indol-2-yl)methyl)amino)-N-(3-hydroxy-2,6-dimethylphenyl)thiazole-5-carboxamide]: the IC50 in experiment [1] (setting [4]) was 50 to 1000 nM; in experiment [2] (setting [5]), above 11000 nM. The “PKMYT1 vs. WEE1 selectivity” value in experiment [2] (setting [6]) was “X (100-<1000 fold)”.

(Values after patent US20260297042A1, “BIARYLAMIDE DERIVATIVES AND THEIR USE AS PKMYT1 INHIBITORS” (CANCER RESEARCH TECHNOLOGY LIMITED, priority 2023, published 2026).)
